From patent US20080255121A1, “Combination Drug for Treating Autoimmune Disease” (DAINIPPON SUMITOMO PHARMA CO., LTD., priority 2004, published 2008) come the findings set out here.

This experiment deals with collagen-induced arthritis mouse. As to the kind of experiment: Collagen-induced arthritis in mice. It counts as in vivo. On the procedure: Efficacy evaluation of Compound (I) was performed using a collagen-induced arthritis in mice as an animal model of rheumatoid arthritis. The collagen-induced arthritis was caused following an ordinary method. That is, 0.1 ml of emulsion was injected to a mouse (DBA/1J, male, Charles River Laboratories Japan) at the base of the tail under etherization as primary immunization. The emulsion was prepared by mixing the same volume of a bovine type II collagen solution (2 mg/ml, Collagen Kenshukai) and Freund Complete Adjuvant (Difco). 0.1 ml of emulsion of the same composition was injected at the base of the tail as booster immunization after three weeks and arthritis was caused. The severity of arthritis was indicated as a score according to the following criteria.
1: Swelling at two or less joints
2: Swelling at three or more joints/Slight redding and edema at limbs
3: Swelling at three or more joints/Moderate redding and edema at limbs
4: Severe redding and edema at limbs/Ankylosis
Evaluation is performed for each limb with 0 to 4 points and therefore the possible maximum score in one individual is 16.
Compound (I) and prednisolone (positive control) were suspended in 0.5% methylcellulose solution and 0.1 ml per 10 g mouse weight was orally administered. In a control group, only 0.5% methylcellulose solution was orally administered. The administration was started with the primary immunization and carried out once a day for consecutive 35 days.

Where [1] appears, read: 5 mg/kg oral once a day 35 days.

With `C[C@@H](c1ccc(-c2ccccc2)c(F)c1)c1cc(/N=C(/N)N2CCOCC2)on1` [Compound (I), 3-[(1S)-1-(2-fluorobiphenyl-4-yl)ethyl]-5-{[amino(morpholin-4-yl)methylene]amino}isoxazole], under setting [1], the “p, arthritis onset ratio, Fischer's direct probability method with Bonferroni's correction” value is given as less than 0.05 and the “p, arthritis score, Shirley-Williams multiple comparison test” value is listed as less than 0.05. Further, the onset of arthritis result (5 to 80 mg/kg oral once a day 35 days, FIG. 10) is reported as “dose-dependently suppressed”. The degree of arthritis result (5 to 80 mg/kg oral once a day 35 days, FIG. 11) is on record as “slight”.
